Results published in EPA's ToxValDB 9.5.
“And” between values parts separate entries of the source, which are not always exact repeats. Equal entries are not always repeated. Values belong to the compound of their own block, whether it stands above or below them.

Test system: Mus musculus
Conditions: for NOEL / LOEL: drinking water
[1] = developmental, duration: 54 days, oral, gavage, M/F, CD1, generation: F1, F1: Developmental: Eye: Eye Opening + F1: Developmental: Liver: Liver, Discolored + F1: Developmental: Whole Body: Fetus Or Pup/Neonate, …
[2] = reproduction developmental, duration: 14 days, oral, gavage, F, Crl:CD-1 (ICR) BR, generation: P0, P0: Blood: Hematocrit (HCT) + P0: Blood: Hemoglobin (HGB) + P0: Blood: Lymphocyte + P0: Blood: Monocytes + P0: Blood: Neutrophils + P0: …
[3] = reproduction developmental, duration: 14 days, oral, gavage, F, Crl:CD-1 (ICR) BR, generation: P0, P0: Liver: Hepatocellular Hypertrophy
[4] = reproduction developmental, duration: 14 days, oral, gavage, M/F, Crl:CD-1 (ICR) BR, generation: P0, P0: Eye: Eye Opening + P0: Whole Body: Lactation Index + P0: Whole Body: Pup Mortality + P0: Whole Body: Pup Weight Relative to Litter
[5] = reproduction developmental, duration: 54 days, oral, gavage, F, CD1, generation: P0, P0: Developmental: Uterus: Implantation + P0: Developmental: Whole Body: No. Male Pups per No. of Pups Sexed
[6] = reproduction developmental, duration: 54 days, oral, gavage, F, CD1, generation: P0, P0: Developmental: Uterus: Implantation + P0: Developmental: Whole Body: No. Male Pups per No. of Pups Sexed + P0: Reproductive: Whole Body…
[7] = reproduction developmental, duration: 109 days, oral, gavage, M, Crl:CD-1 (ICR) BR, generation: P0, P0: Blood: Hematocrit (HCT) + P0: Blood: Hemoglobin (HGB) + P0: Blood: Sorbitol Dehydrogenase (SDH), Blood + P0: Kidney: Blood Urea Nitrogen…
[8] = reproduction developmental, duration: 109 days, oral, gavage, M, Crl:CD-1 (ICR) BR, generation: P0, P0: Hepatic: Liver: Alanine Aminotransferase (ALT), Blood + P0: Hepatic: Liver: Alkaline Phosphatase (ALP), Blood + P0: Hepatic: Liver: …
[9] = reproduction developmental, duration: 109 days, oral, gavage, M, Crl:CD-1 (ICR) BR, generation: P0, P0: Liver: Hepatocellular Hypertrophy
[10] = reproduction developmental, multiple, M, Crl:CD-1 (ICR) BR, generation: F1, F1: Reproductive: Prepuce: Preputial Separation + F1: Whole Body: Whole Body: Body Weight Change + F1: Whole Body: Whole Body: Feed …
[11] = reproduction developmental, multiple, M, Crl:CD-1 (ICR) BR, generation: F1, F1: Whole Body: Whole Body: Body Weight Change + F1: Whole Body: Whole Body: Feed Consumption, Absolute
[12] = reproduction developmental, oral, gavage, F, CD1, generation: P0, P0: Blood: Hematocrit (HCT) + P0: Blood: Hemoglobin (HGB) + P0: Blood: Lymphocyte + P0: Blood: Monocytes + P0: Blood: Neutrophils + P0: …
[13] = reproduction developmental, oral, gavage, F, CD1, generation: P0, P0: Liver: Alanine Aminotransferase (ALT), Blood + P0: Liver: Alkaline Phosphatase (ALP), Blood + P0: Liver: Aspartate Aminotransferase (AST…
[14] = reproduction developmental, oral, gavage, F, Crl:CD-1 (ICR) BR, generation: P0, P0: Hepatic: Liver: Alanine Aminotransferase (ALT), Blood + P0: Hepatic: Liver: Alkaline Phosphatase (ALP), Blood + P0: Hepatic: Liver: …
[15] = reproduction developmental, oral, gavage, M, CD1, generation: P0, P0: Blood: Cholesterol (CHOL), Total + P0: Blood: Hematocrit (HCT) + P0: Blood: Hemoglobin (HGB) + P0: Blood: Lymphocyte + P0: Blood: …
[16] = short-term, duration: 28 days, oral, M, BALB/c, activity cage (locomotion events, 60 min) + Morris water maze (escape time, acquisition, day 5) + Morris water maze (platform crossing, …
[17] = short-term, duration: 28 days, oral, M, BALB/c, elevated plus maze (time in open arms) + forced swim (immobility time, last 4 min) + forced swim (immobility time, total 6 min)
[18] = subchronic, duration: 8 weeks, oral, M, Kunming, Y-maze (number of training runs to meet 90% learning standard)
[19] = subchronic, duration: 8 weeks, oral, M, Kunming, open field (grid entry, 3 minutes)
[20] = subchronic, duration: 10 weeks, oral, ICR, Y-maze (number of training runs to meet 90% learning standard)
[21] = subchronic, duration: 30 days, oral, F, Swiss Albino, rotarod (latency to fall, 25 rpm)
[22] = subchronic, duration: 64 days, oral, M, C57BL/6, formalin test (flinches, early phase, 10 min) + formalin test (flinches, late phase, 60 min) + formalin test (flinches/10 min, 60 min) + …

NEL (developmental, oral, gavage, M/F, CD1, generation: F1, F1: Eye: Eye Opening + F1: Liver: Liver, Discolored + F1: Prepuce or Vagina: Preputial Separation or Vaginal Patency + F1: Whole Body: Fetus…): 25 mg/kg-day
LEL (developmental, oral, gavage, M/F, CD1, generation: F1, F1: Eye: Eye Opening + F1: Liver: Liver, Discolored + F1: Whole Body: Fetus Or Pup/Neonate, Small + F1: Whole Body: Lactation Index + F1: …): 100 mg/kg-day
LEL [2]: 100 mg/kg-day
NEL [2]: 25 mg/kg-day
NEL (reproduction developmental, duration: 14 days, oral, gavage, F, Crl:CD-1 (ICR) BR, generation: P0, P0: Kidney: Kidney Weight, Absolute + P0: Liver: Liver Weight, Absolute + P0: Liver: Total Bilirubin (TBILI), Blood + P0: Liver: Total …): 100 mg/kg-day
LEL [7]: 100 mg/kg-day
NEL [7]: 25 mg/kg-day
NEL (reproduction developmental, duration: 109 days, oral, gavage, M, Crl:CD-1 (ICR) BR, generation: P0, P0: Blood: Lymphocyte + P0: Blood: Monocytes + P0: Blood: Neutrophils + P0: Blood: Red Blood Cell (RBC) + P0: Blood: Reticulocytes + P0: …): 100 mg/kg-day
NEL (reproduction developmental, oral, gavage, F, CD1, generation: P0, P0: Blood: Calcium (CA), Blood + P0: Blood: Chloride (CL), Blood + P0: Blood: Globulin (G), Blood + P0: Blood: Glucose (GLU), Blood + P0: …): 100 mg/kg-day
LEL [12]: 100 mg/kg-day
NEL [12]: 25 mg/kg-day
NEL (reproduction developmental, oral, gavage, F, CD1, generation: P0, P0: Uterus: Implantation + P0: Whole Body: Fertility Index + P0: Whole Body: Gestation Index + P0: Whole Body: Male Pups per Pups Sexed + P0…): 100 mg/kg-day
NEL (reproduction developmental, oral, gavage, M, CD1, generation: P0, P0: Blood: Calcium (CA), Blood + P0: Blood: Globulin (G) + P0: Blood: Glucose (GLU) + P0: Blood: Inorganic Phosphorous (PHOS) + P0: Blood: …): 100 mg/kg-day
LEL [15]: 100 mg/kg-day
NEL [15]: 25 mg/kg-day
NEL (reproduction developmental, oral, gavage, M, CD1, generation: P0, P0: Whole Body: Fertility Index + P0: Whole Body: Percent Mating): 100 mg/kg-day
SMILES: OCCC(F)(F)C(F)(F)C(F)(F)C(F)(F)C(F)(F)C(F)(F)F [2-(Perfluorohexyl)ethanol]
LOAEL [1]: 120 mg/kg-day
NOAEL [1]: 25 mg/kg-day
LEL [3]: 5 mg/kg-day
NEL [3]: 1 mg/kg-day
LEL [4]: 100 mg/kg-day
NEL [4]: 25 mg/kg-day
NEL (reproduction developmental, duration: 14 days, oral, gavage, M/F, Crl:CD-1 (ICR) BR, generation: P0, P0: Whole Body: Live Pups Born + P0: Whole Body: Male Pups per Pups Sexed + P0: Whole Body: Viability Index): 100 mg/kg-day
NEL (reproduction developmental, duration: 42 days, multiple, F, Crl:CD-1 (ICR) BR, generation: P0, P0: Vagina: Vaginal Patency + P0: Whole Body: Body Weight Change + P0: Whole Body: Feed Consumption, Absolute): 25 mg/kg-day
NEL (reproduction developmental, duration: 42 days, multiple, M, Crl:CD-1 (ICR) BR, generation: P0, P0: Prepuce: Preputial Separation + P0: Whole Body: Body Weight Change + P0: Whole Body: Feed Consumption, Absolute): 25 mg/kg-day
LOAEL [5]: 120 mg/kg-day
NOAEL [5]: 25 mg/kg-day
LOAEL [6]: 120 mg/kg-day
NOAEL [6]: 25 mg/kg-day
NOAEL (reproduction developmental, duration: 54 days, oral, gavage, F, CD1, generation: P0, P0: Reproductive: Whole Body: Fertility Index + P0: Reproductive: Whole Body: Gestation Index + P0: Reproductive: Whole Body: Percent Mating): 120 mg/kg-day
NOAEL (reproduction developmental, duration: 54 days, oral, gavage, M/F, CD1, generation: F1, F1: Reproductive: Prepuce or Vagina: Preputial Separation or Vaginal Patency): 120 mg/kg-day
LOAEL (reproduction developmental, duration: 54 days, oral, gavage, M, CD1, generation: P0, P0: Reproductive: Whole Body: Fertility Index + P0: Reproductive: Whole Body: Percent Mating): 120 mg/kg-day
LOAEL [8]: 5 mg/kg-day
NOAEL [8]: 1 mg/kg-day
LEL [9]: 5 mg/kg-day
NEL [9]: 1 mg/kg-day
NOAEL (reproduction developmental, duration: 109 days, oral, gavage, M, Crl:CD-1 (ICR) BR, generation: P0, P0: Reproductive: Epididymis: Epididymis Weight, Absolute + P0: Reproductive: Epididymis: Epididymis Weight, Relative + P0: Reproductive: …): 100 mg/kg-day
NOAEL (reproduction developmental, multiple, M, Crl:CD-1 (ICR) BR, generation: F1, F1: Reproductive: Prepuce: Preputial Separation): 100 mg/kg-day
LOAEL [10]: 5 mg/kg-day
NOAEL [10]: 1 mg/kg-day
LOAEL [11]: 100 mg/kg-day
NOAEL [11]: 25 mg/kg-day
LEL [13]: 25 mg/kg-day
NEL [13]: 5 mg/kg-day
LOAEL [14]: 5 mg/kg-day
NOAEL [14]: 1 mg/kg-day
NEL (reproduction developmental, oral, gavage, M/F, CD1, generation: F1, F1: Whole Body: Live Pups Born + F1: Whole Body: Viability Index): 100 mg/kg-day

SMILES: [F-].[Na+] [Sodium fluoride]
NOEL (developmental, oral, M, Kunming, generation: F1, F1: activity chamber (ambulation events) + F1: activity chamber (rearing events) + F1: novel object test (adaptation phase memory index) + …): 18.4 mg/kg-day
LOEL (developmental, oral, M, NMRI, generation: F1, F1: maze test (completion time, assessment 1) + F1: maze test (completion time, assessment 2)): 0.113 mg/day
NOEL (short-term, duration: 28 days, oral, M, BALB/c, activity cage (locomotion events, 10 min) + activity cage (rearing events, 10 min) + activity cage (rearing events, 60 min) + elevated plus …): 1.16 mg/kg-day
LOEL [16]: 0.58 mg/kg-day
NOEL [16]: 0.23 mg/kg-day
LOEL [17]: 1.16 mg/kg-day
NOEL [17]: 0.58 mg/kg-day
NOEL (subchronic, duration: 8 weeks, oral, M, Kunming, Y-maze (% of correct responses 24 hrs after mastering learning standard)): 1.16 mg/kg-day
LOEL [18]: 0.58 mg/kg-day and 0.7 mg/kg-day
NOEL [18]: 0.12 mg/kg-day and 0.35 mg/kg-day
NOEL (subchronic, duration: 8 weeks, oral, M, Kunming, open field (grid entry, 1 minute) + open field (rearing events) + open field (standing against wall events) + Y-maze (percent correct …): 1.39 mg/kg-day
LOEL [19]: 1.39 mg/kg-day
NOEL [19]: 0.7 mg/kg-day
NOEL (subchronic, duration: 10 weeks, oral, ICR, Y-maze (% of correct responses 24 hrs after mastering learning standard)): 1.19 mg/kg-day
LOEL [20]: 1.19 mg/kg-day
NOEL [20]: 0.59 mg/kg-day
NOEL (subchronic, duration: 30 days, oral, F, Swiss Albino, elevated plus maze (time to move from open to closed arm, trial 1) + open field (fecal matter) + open field (grooming time) + open field (…): 24.5 mg/kg-day
LOEL (subchronic, duration: 30 days, oral, F, Swiss Albino, elevated plus maze (time to move from open to closed arm, trial 2) + forced swim (immobility time) + motor coordination (akinesia, latency …): 12.3 mg/kg-day
LOEL (subchronic, duration: 30 days, oral, F, Swiss Albino, maze test (latency) + motor coordination (akinesia, latency time) + motor coordination (catalepsy, latency time) + swim test (total swim …): 14.7 mg/kg-day
LOEL [21]: 24.5 mg/kg-day
NOEL [21]: 12.3 mg/kg-day
LOEL (subchronic, duration: 64 days, oral, M, C57BL/6, Von Frey hairs test (relative frequency of paw withdrawal)): 5.79 mg/kg-day
LOEL [22]: 11.6 mg/kg-day
NOEL [22]: 5.79 mg/kg-day
NOEL (subchronic, duration: 64 days, oral, M, C57BL/6, formalin test (licking time, late phase, 60 min) + formalin test (licking time/10 min, 60 min) + open field (total distance moved, 1 hr) + …): 11.6 mg/kg-day
